# Source: ChEMBL document CHEMBL1143307, “Small-molecule perturbation of competing interactions between c-Myc and Max” (Bioorg Med Chem Lett, 2009)
# Columns and labels:
# [1] = Binding affinity to fluorescently tagged c-Myc-p21MAX heterodimer assessed as competitive constant by using fluorescence polarization titration
# [2] = Decrease in c-Myc-p21MAX heterodimer binding to E-box DNA at 50 uM by EMSA method
compound,measurement,setting,value
CCc1ccc(/C=C2\SC(=S)NC2=O)cc1,Activity,[1],12
same,fold change (FC),[2],2
